Each structure is given as a SMILES string. Read-outs that look alike come from different tables or passages of the source. Marks after values point to notes of the source that are not given here.

For series [1] the following is noted: reported literature data, cited from earlier work.
Series [2] in a line: Stability to acid catalyst (pTSA) in acrylic solvent system, followed by gas chromatography. The format is physicochemical. As to conditions: 0.5 wt % pTSA, 50° C.; for Wt. % of Solvent At One Week Decomposition Period / Wt. % of Solvent At Three Week Decomposition Period: nitrogen atmosphere, start = 100. As to the method:
Acrylic solvent systems were prepared to test the stability of dimethyl carbonate to acid catalysts, which are commonly present in coating compositions. The formulations contained 29.9 wt % DMC, 28.7 wt % pentyl acetate, 20.2 wt % n-butyl acetate, 16.1 wt % n-butyl alcohol, 3.6 wt % methyl ethyl ketone, 1.5 wt % isopropyl alcohol. 2 wt % toluene as an internal standard. The latter materials were purchased from Aldrich Chemical Co.
Para toluene sulfonic acid (PTSA) was added to the above formulation (again, pTSA was purchased from Aldrich Chemical Co.), in the amount of 0.5 wt %. The solutions were sealed and placed in an oven at 50° C. under a nitrogen atmosphere. Samples were withdrawn at intervals for testing. The content of dimethyl carbonate was monitored over time by gas chromatographic analysis using an HP 5890 gas chromatograph. In a parallel experiment an equal amount of tert. Butyl acetate was used instead of DMC. The results are shown below in Table 8 (all percentages are by weight).

The next series is described as follows: Fluid solvent properties. As to conditions: for Viscosity: 20° C. From the text:
One of ordinary skill in the art can readily determine the flash point of a fluid or blend (e.g., ASTM D92-78).
The evaporation rate should be suitable for the intended purpose. […] The fluid selected preferably will have a similar evaporation rate to the disadvantaged fluid being replaced, particularly in the case where a fluid blend is used and an acceptable evaporation profile is desired. It is convenient for the fluid selected to have an evaporation rate less than 12 times the evaporation rate of n-butyl acetate. Evaporation rates may also be given relative to n-butyl acetate at 1.0 (ASTM D3539-87). Ranges of evaporation rates important for different applications are 5-3, 3-2, 2-1, 1.0-0.3, 0.3-0.1, and <0.1, relative to n-butyl acetate at 1.0. The present invention is related to fluids and fluid blends that at least partially evaporate into the atmosphere during or after their application.

Description for in vivo: One way to measure the toxic effects of a chemical is to measure the dose-effect relationship; the dose is usually measured in mg of chemical per kg of body mass. This is typically done experimentally by administering the chemical to mice or rats at several doses in the lethal range and plotting the logarithm of the dose versus the percentage of the population killed by the chemical. The dose lethal to 50% of the test population is called the median lethal dose (LD50) and is typically used as a guide for the toxicity of a chemical. […] EU (European Union) uses a cutoff of >2,000 mg/kg.

Consider `COC(C)=O` [methyl acetate], for which the “Flash Point” value in series [1] was about −12 °C; in series [1] (listed as Methyl acetate), “about −12 °C”.
Consider `CCCCOC(C)=O` [Butyl Acetate], for which the “Flash Point” value in series [1] was 27 °C.
In the case of `CC(=O)OC(C)(C)C` [t-butyl acetate], in series [2], the “Wt. % of Solvent At One Week Decomposition Period” value was 54.4 wt. % and the “Wt. % of Solvent At Three Week Decomposition Period” value was 17.2 wt. %.
Take `CC(C)=O` [Acetone]: the “Flash Point” value in series [1] is given as −20* ° C. In addition, the LD50 (as a rule, the dose at which mortality reaches 50%) in the series “in vivo” amounted to 5800 mg/kg. In the series “Fluid solvent properties”, the “Boiling Temperature” value is 56 °C; the “Evaporation Ratio to Butyl Acetate” value came to 18; the “Hansen Solubility Parameter, H-Bouding” value came out at 3.4; the “Hansen Solubility Parameter, Nonpolar” value is reported as 7.6. In “Fluid solvent properties”, the “Hansen Solubility Parameter, Polar” value was 5.1; the “Hansen Solubility Parameter, Total” value came to 9.2; the “Specific Gravity” value is given as 0.792; the Surface Tension turned out to be 22.3 dyn/cm. The molecule further showed a Viscosity in the series “Fluid solvent properties” of 0.33 cps.
In the case of `COC(=O)OC` [DMC, dimethyl carbonate], in series [1], the “Flash Point” value is “+19 to +32* ° C”. This molecule showed a 50% lethal dose (LD50) in “in vivo” of 13000 mg/kg. Moreover, in series [2], the “Stability to acid catalysts (in words)” value was “more stable to acid catalysts than is t-butyl acetate”, the “Wt. % of Solvent At One Week Decomposition Period” value came to 97.8 wt. % and the “Wt. % of Solvent At Three Week Decomposition Period” value was found to be 95.4 wt. %. In the series “Fluid solvent properties”, the “Boiling Temperature” value was found to be 90 °C, the “Evaporation Ratio to Butyl Acetate” value amounted to 3.2, the “Specific Gravity” value is recorded as 1.065 and the Surface Tension was determined as 29 dyn/cm. This molecule came in with a Viscosity in “Fluid solvent properties” of 0.60 cps.
Turning to `COC(=O)C(C)(C)C` [MP, methyl pivalate], in the series “Fluid solvent properties”, the “Boiling Temperature” value was 99 °C, the “Evaporation Ratio to Butyl Acetate” value amounted to 2.2, the “Flash Point” value is 27.2 °C and the “Specific Gravity” value is recorded as 0.873. In “Fluid solvent properties”, this molecule registered a Surface Tension of 23.8 dyn/cm and a Viscosity of 0.74 cps.

Values taken from patent US6818049B1, “Environmentally preferred fluids and fluid blends” (ExxonMobil Chemical Patents Inc., priority 1998, dated 2004).
